Values of other authors as cited in publication PMC6054295 (Infection and Drug Resistance, 2018).
Where no end group is shown, it is not given here.

Columns and labels:
[1] = system: P. aeruginosa; conditions: at concentrations > 100 μM
[2] = system: MEWO cells
[3] = system: 3T3 cells

Substance	concentration at which it behaves as a membrane-disrupting peptide [µM]	antibacterial activity [1]	cytotoxicity [2]	cytotoxicity [3]
indolicidin: a proline- and tryptophan-rich peptide (ILPWKWPWWPWRR; ends and bridges not checked; UniProt P33046 131-143, looked up)	> 2.6	–	–	–
N-APPGARPPPGPPPPGPPPPGP-C [SP-B]	–	negligible antibacterial activity	noncytotoxic	noncytotoxic
